Results reported in patent publication US9199971B2, “Arylethynyl pyrimidines” (Hoffmann-La Roche Inc., priority 2012, dated 2015).
≈ marks a conversion by molar mass, not a printed value.

Key:
[1] = Spontaneous Glutathione (GSH) Addition Assay; parameters: key: Samples for which the mass of a covalent adduct was clearly detected (M+307) are indicated as FLAG (positive); Compounds for which no adduct was detected are designated NO FLAG (negative); details: 10 μM test substance, 5 mM GSH, pH 7.4 phosphate buffer, 24 hours, room temperature; adduct by MS
Experimental: 10 μM of test substance dissolved in pH 7.4 phosphate buffer was incubated with 5 mM GSH (glutathione) for 24 hours at room temperature. The samples were then analyzed using a mass spectrometer to determine whether adducts between glutathione and the drug had been formed. Samples for which the mass of a covalent adduct was clearly detected (M+307) are indicated as FLAG (positive). Compounds for which no adduct was detected are designated NO FLAG (negative).

[2] = Lyophilisation Solubility Assay (LYSA); type: physicochemical; details: aqueous buffer, thermodynamic from solid, 0.05 M phosphate buffer pH 6.5
Experimental: The procedure of this automatic high throughput assay can be separated into two steps. First, DMSO stock solutions of test compounds are diluted in order to prepare four point calibration curves. The peak area at an optimal wavelength for each test compound is determined automatically by Ultra Fast Liquid Chromatography. The extraction of peak areas and retention times from the raw data is performed automatically. Using four concentrations and the related peak areas, slope and intercept of the calibration line is calculated. The correlation coefficient of the obtained regression line should be greater than 0.99. In the second phase, the sample solutions are prepared in duplicate from the DMSO stock solutions. The DMSO was removed using an evaporator. After evaporation of the DMSO, the solid drugs were solved in 0.05 M phosphate buffer (pH 6.5), stirred for one hour and afterwards shaken for two hours. After standing overnight (about 20 hours), the solutions are filtered using a microtiter filter plate. The filtrate and its 1/10 dilutions are then analyzed automatically by High Performance Liquid Chromatography (HPLC). The peak areas and retention times of the samples were extracted at the same wavelength used for the calibration.
The solubility is calculated using the following equation: S=(A−b)/a(×10 for the sample diluted 1/10)
Where S is the solubility in μg/mL; A is the peak area of the sample; a is the slope and b is the intercept of the calibration curve.

human mGlu5a receptor = target: T1, human mGlu5a receptor (Homo sapiens, UniProt P41594); experiment: Intracellular Ca2+ mobilization assay (mGlu5 PAM); type: cell-based; details: HEK-293 cells expressing human mGlu5a; L-glutamate at EC20
T1 construct: expressed in transfected cells; host or cells: HEK-293 (monoclonal, stably transfected)
T1 sequence (P41594 21-1180 isoform P41594-2 limits assumed): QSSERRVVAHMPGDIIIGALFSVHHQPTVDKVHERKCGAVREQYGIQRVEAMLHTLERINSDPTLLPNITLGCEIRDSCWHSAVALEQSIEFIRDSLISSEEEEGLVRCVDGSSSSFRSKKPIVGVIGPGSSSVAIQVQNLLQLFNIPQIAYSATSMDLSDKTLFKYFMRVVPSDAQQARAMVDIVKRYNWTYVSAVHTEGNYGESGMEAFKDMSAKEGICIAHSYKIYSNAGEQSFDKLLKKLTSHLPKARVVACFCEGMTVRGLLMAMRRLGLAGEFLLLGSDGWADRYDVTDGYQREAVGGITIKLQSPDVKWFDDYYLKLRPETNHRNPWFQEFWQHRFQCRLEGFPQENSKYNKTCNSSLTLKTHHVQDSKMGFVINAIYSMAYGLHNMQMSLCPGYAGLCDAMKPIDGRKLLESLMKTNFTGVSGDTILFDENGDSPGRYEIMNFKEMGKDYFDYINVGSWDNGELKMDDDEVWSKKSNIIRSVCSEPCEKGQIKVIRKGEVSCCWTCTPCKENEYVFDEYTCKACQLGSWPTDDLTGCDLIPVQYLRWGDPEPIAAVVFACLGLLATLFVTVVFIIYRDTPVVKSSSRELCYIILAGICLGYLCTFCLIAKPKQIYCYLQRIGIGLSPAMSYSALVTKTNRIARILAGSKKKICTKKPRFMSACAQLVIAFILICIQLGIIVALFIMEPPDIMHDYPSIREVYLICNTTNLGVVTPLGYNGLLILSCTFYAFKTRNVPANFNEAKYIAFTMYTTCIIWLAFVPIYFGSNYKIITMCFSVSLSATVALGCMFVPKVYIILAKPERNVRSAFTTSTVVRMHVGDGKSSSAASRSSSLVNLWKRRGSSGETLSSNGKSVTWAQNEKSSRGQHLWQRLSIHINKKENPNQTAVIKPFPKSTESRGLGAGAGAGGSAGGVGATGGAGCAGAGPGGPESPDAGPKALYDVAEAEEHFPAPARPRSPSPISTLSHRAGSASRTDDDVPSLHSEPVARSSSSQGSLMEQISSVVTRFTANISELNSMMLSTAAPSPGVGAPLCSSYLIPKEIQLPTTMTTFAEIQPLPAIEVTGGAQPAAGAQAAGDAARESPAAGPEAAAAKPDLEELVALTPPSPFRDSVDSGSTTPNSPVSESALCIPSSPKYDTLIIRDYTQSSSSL
Experimental: A monoclonal HEK-293 cell line stably transfected with a cDNA encoding for the human mGlu5a receptor was generated; for the work with mGlu5 Positive Allosteric Modulators (PAMs), a cell line with low receptor expression levels and low constitutive receptor activity was selected to allow the differentiation of agonistic versus PAM activity. Cells were cultured according to standard protocols (Freshney, 2000) in Dulbecco's Modified Eagle Medium with high glucose supplemented with 1 mM glutamine, 10% (vol/vol) heat-inactivated bovine calf serum, Penicillin/Streptomycin, 50 μg/ml hygromycin and 15 μg/ml blasticidin (all cell culture reagents and antibiotics from Invitrogen, Basel, Switzerland).
About 24 hrs before an experiment, 5×10^4 cells/well were seeded in poly-D-lysine coated, black/clear-bottomed 96-well plates. The cells were loaded with 2.5 μM Fluo-4AM in loading buffer (1×HBSS, 20 mM HEPES) for 1 hr at 37° C. and washed five times with loading buffer. The cells were transferred into a Functional Drug Screening System 7000 (Hamamatsu, Paris, France), and 11 half logarithmic serial dilutions of test compound at 37° C. were added and the cells were incubated for 10-30 min. with on-line recording of fluorescence. Following this pre-incubation step, the agonist L-glutamate was added to the cells at a concentration corresponding to EC20 (typically around 80 μM) with on-line recording of fluorescence; in order to account for day-to-day variations in the responsiveness of cells, the EC20 of glutamate was determined immediately ahead of each experiment by recording of a full dose-response curve of glutamate.
Responses were measured as peak increase in fluorescence minus basal (i.e. fluorescence without addition of L-glutamate), normalized to the maximal stimulatory effect obtained with saturating concentrations of L-glutamate. Graphs were plotted with the % maximal stimulatory using XLfit, a curve fitting program that iteratively plots the data using Levenburg Marquardt algorithm. The single site competition analysis equation used was y=A+((B−A)/(1+((x/C)D))), where y is the % maximal stimulatory effect, A is the minimum y, B is the maximum y, C is the EC50, x is the log 10 of the concentration of the competing compound and D is the slope of the curve (the Hill Coefficient). From these curves the EC50 (concentration at which half maximal stimulation was achieved), the Hill coefficient as well as the maximal response in % of the maximal stimulatory effect obtained with saturating concentrations of L-glutamate were calculated.
A depression of the signal observed after addition of the EC20 concentration of L-glutamate was indicative of an inhibitory activity of the test compound.

[3] = Solubility by 24 h equilibration in phosphate buffer, manual conventional HPLC (reference compound 106); type: physicochemical; details: aqueous buffer, thermodynamic from solid, equilibrated 24 h in 0.05 M phosphate buffer pH 6.5
Experimental: In the case of reference compound 106, the compound was equilibrated for 24 h in 0.05 M phosphate buffer (pH 6.5) using a procedure identical to that performed with the LYSA assay. The amount of solute present was then directly determined using manual conventional HPLC analytics.

Structure (SMILES)	GSH assay [1]	solubility [2]	EC50 (human mGlu5a receptor)	solubility at 24 h [3]
COCCN1C(=O)N(c2ncc(C#Cc3ccccc3)cn2)[C@@H]2CCC[C@@H]21 [Example 5, (−)-(3aR,6aS)-1-(2-Methoxy-ethyl)-3-(5-phenylethynyl-pyrimidin-2-yl)-hexahydro-cyclopentaimidazol-2-one]	NO FLAG	171 µg/mL (≈ 472 µM)	12.5 nM	–
CCN1C(=O)N(c2ncc(C#Cc3cccc(F)c3)cn2)[C@@H]2CCC[C@@H]21 [Example 2]	NO FLAG	7 µg/mL (≈ 20 µM)	10.6 nM	–
CCN1C(=O)N(c2ncc(C#Cc3cc(F)ccc3F)cn2)[C@@H]2CCC[C@@H]21 [Example 4]	NO FLAG	16 µg/mL (≈ 43.4 µM)	10 nM	–
CCN1C(=O)N(c2ncc(C#Cc3ccccc3)cn2)[C@@H]2CCC[C@@H]21 [Example 1, (−)-(3aR,6aS)-1-Ethyl-3-(5-phenylethynyl-pyrimidin-2-yl)-hexahydro-cyclopentaimidazol-2-one]	NO FLAG	8 µg/mL (≈ 24.1 µM)	9.1 nM	–
CCN1C(=O)N(c2ncc(C#Cc3ccc(F)cc3)cn2)[C@@H]2CCC[C@@H]21 [Example 3]	NO FLAG	4 µg/mL (≈ 11.4 µM)	11.5 nM	–
CN1C(=O)N(c2ccc(C#Cc3ccccc3)cn2)[C@@H]2CCC[C@@H]21 [Ref. 1 Ex. 106, reference compound]	–	–	8 nM	0.011 µg/mL (≈ 0.0347 µM)

Further lines, with some results ahead:

GSH assay [1]	solubility [2]	EC50 (human mGlu5a receptor)	Structure (SMILES)	solubility at 24 h [3]
NO FLAG	114 µg/mL (≈ 300 µM)	24.5 nM	COCCN1C(=O)N(c2ncc(C#Cc3cccc(F)c3)cn2)[C@@H]2CCC[C@@H]21 [Example 6]	–
NO FLAG	115 µg/mL (≈ 292 µM)	31.6 nM	COCCCN1C(=O)N(c2ncc(C#Cc3cccc(F)c3)cn2)[C@@H]2CCC[C@@H]21 [Example 10]	–
FLAG	2 µg/mL (≈ 6.28 µM)	8.1 nM	CN1C(=O)N(c2ccc(C#Cc3ccccc3)nn2)[C@@H]2CCC[C@@H]21 [Ref. 1 Ex. 170, reference compound]	–
NO FLAG	56 µg/mL (≈ 142 µM)	35 nM	COCCCN1C(=O)N(c2ncc(C#Cc3ccc(F)cc3)cn2)[C@@H]2CCC[C@@H]21 [Example 11]	–
NO FLAG	75 µg/mL (≈ 188 µM)	15.7 nM	COCCN1C(=O)N(c2ncc(C#Cc3cc(F)ccc3F)cn2)[C@@H]2CCC[C@@H]21 [Example 8]	–
NO FLAG	153 µg/mL (≈ 406 µM)	30.9 nM	COCCCN1C(=O)N(c2ncc(C#Cc3ccccc3)cn2)[C@@H]2CCC[C@@H]21 [Example 9, (−)-(3aR,6aS)-1-(3-Methoxy-propyl)-3-(5-phenylethynyl-pyrimidin-2-yl)-hexahydro-cyclopentaimidazol-2-one]	–
NO FLAG	43 µg/mL (≈ 113 µM)	26.8 nM	COCCN1C(=O)N(c2ncc(C#Cc3ccc(F)cc3)cn2)[C@@H]2CCC[C@@H]21 [Example 7]	–
FLAG	< 1 µg/mL	11.9 nM	CN1C(=O)N(c2ccc(C#Cc3cccc(F)c3)nn2)[C@@H]2CCC[C@@H]21 (racemic) [Ref. 1 Ex. 174, reference compound]	–
